Moisture uptake, solubility and Unbound brain concentration data for two molecules are collected here from US20260306491A1, “EGFR INHIBITOR FOR TREATING CANCERS COMPRISING ATYPICAL EGFR MUTATIONS” (ORIC Pharmaceuticals, Inc., priority 2023, published 2026).

Where a name gives a salt, the structure may show the parent alone. Bounds are passed on as bounds.

The nature of data set [1]: Moisture uptake by dynamic vapor sorption (DVS). The format is physicochemical. The settings on record: 25° C./80% relative humidity. As to the method: DVS was measured via a SMS (Surface Measurement Systems) DVS Intrinsic.
The relative humidity at 25° C. was calibrated against deliquescence point of LiCl, Mg(NO3)2 and KCl.
Freebase Compound I was stirred with an equimolar amount of malonic acid in acetone at RT for 14.5 hrs. The slurry was subjected to vacuum drying at 50° C. for about 6 hrs. The malonate salt of Compound I was analyzed by XRPD, DSC, TGA, ^1H NMR, and DVS. […] As shown in the TGA graph, a weight loss of about 0.7% up to 130° C. was observed.
Freebase Compound I was stirred with an equimolar amount of glycolic acid in acetone at RT for 2 days, followed by vacuum drying at 50° C. for 2 hrs. The glycolate salt of Compound I was analyzed by XRPD, DSC, TGA, ^1H NMR, and DVS. […] As shown in the TGA graph, a weight loss of about 1.3% up to 120° C. was observed.

Data set [2] in a line: Solubility screening of malonate salt of Compound I in various solvents at RT. The format is physicochemical. As to the method: The solubility of the malonate salt of Compound I as prepared according to Example 2 in various solvents at RT was measured. The malonate salt of Compound I (approximately 2 mg) was added to a 3-mL glass vial. The solvent was then added stepwise (50/50/200/200/500/1000 μL) into the vial until the solids were dissolved visually or a total volume of 2 mL was reached.

Data set [3] can be described thus: Biodistribution in plasma and brain after single oral dose in female CB17 SCID mice. The format is in vivo. The following applies: mouse, oral 50 mg/kg, 8 h. The method, then: Female non-tumor bearing Fox Chase CB17 SCID mice were orally administered a single dose as specified in Table B1.
Brain tissues were excised and plasma was collected from all the animals receiving Compound I, or tucatinib at 1 hour, 4 hours, and 8 hours post-administration. Tucatinib was used as a reference agent. Tucatinib is a clinically approved therapy for HER2 positive breast cancer patients with brain metastases. The harvested brains were rinsed in ice-cold phosphate-buffered saline and weighed. All plasma and brain samples were stored at approximately −80° C. until thawed for LC-MS/MS analysis.
Prior to analysis, brain tissues were homogenized 1:5 with phosphate buffer. Average free brain-to-free plasma ratio (Kp,uu) was calculated from individual mice by using total concentration values determined in the brain and plasma at individual time points, or by calculating the area under the curve (AUC) and converting the values to free concentration (or AUC) with in vitro binding parameters determined in the brain (fu,b) and plasma (fu,p) as follows:
Kp,uu=Brain Concentration (or AUC)*fu,b/Plasma Concentration (or AUC)*fu,p.
Free fraction in the brain (fu,b) and in plasma (fu,p) was determined with equilibrium dialysis as follows: The brain tissue homogenate or plasma from the mice were spiked to yield a final concentration of 1 μM Compound I, or 5 μM tucatinib. Compound I and tucatinib were incubated in equilibrium dialysis plate on a shaking incubator at 37° C. with 5% CO2 at 450 rpm for 8 hours and 24 hours, respectively. Following the incubation, aliquots of the matrix and the buffer samples were sampled and the concentration of Compound I, or tucatinib were determined.
where fu,b,d is fraction unbound determined with 20% brain homogenate.

In general, solubility refers to how much of the substance goes into solution per volume. In the case of `C=CC(=O)Nc1cc(Nc2cc(N3OCC[C@@H]3c3cc(F)cc(F)c3)ncn2)c(OC)cc1N1CCC(N2CCN(C3CC3)CC2)CC1` [malonate salt of Compound I], the Moisture uptake in data set [1] was 0.19%. For the same molecule, the solubility was below 1.2 mg/mL in data set [2] (Water, RT); 2.1 to 7 mg/mL in data set [2] (organic solvent or mixture, 1,4-Dioxane, RT); 1.1 to 2.2 mg/mL in data set [2] (organic solvent or mixture, 2-MeTHF, RT); 6 to 18 mg/mL in data set [2] (organic solvent or mixture, ACN, RT); 1.1 to 2.2 mg/mL in data set [2] (organic solvent or mixture, Acetone, RT); below 0.9 mg/mL in data set [2] (organic solvent or mixture, Anisole, RT). For the same molecule, the solubility in data set [2] (organic solvent or mixture, CHCl3, RT) is above 40 mg/mL; in data set [2] (organic solvent or mixture, CPME, RT), below 1.1 mg/mL; in data set [2] (organic solvent or mixture, DCM, RT) it was 20 to 40 mg/mL; in data set [2] (organic solvent or mixture, DMSO, RT), above 40 mg/mL; in data set [2] (organic solvent or mixture, EtOAc, RT), below 1 mg/mL; in data set [2] (organic solvent or mixture, EtOH, RT), 1.9 to 6.3 mg/mL. Besides, the solubility in data set [2] (organic solvent or mixture, IPA, RT) is below 1.2 mg/mL; in data set [2] (organic solvent or mixture, IPAc, RT), below 0.9 mg/mL; in data set [2] (organic solvent or mixture, MIBK, RT), below 1.2 mg/mL; in data set [2] (organic solvent or mixture, MTBE, RT) it was below 1 mg/mL; in data set [2] (organic solvent or mixture, MeOH, RT), above 46 mg/mL; in data set [2] (organic solvent or mixture, THF, RT), 2.1 to 7 mg/mL. Also, the solubility in data set [2] (organic solvent or mixture, Toluene, RT) was below 1 mg/mL; in data set [2] (organic solvent or mixture, n-Heptane, RT), below 1.1 mg/mL.

As to `Cc1cc(Nc2ncnc3ccc(NC4=NC(C)(C)CO4)cc23)ccc1Oc1ccn2ncnc2c1` [tucatinib, reference compound], in data set [3], the Unbound brain concentration entry is listed as “below the limit of quantitation (BLOQ)”.
